The term IC50 denotes the concentration that gives 50% inhibition. A low value points to greater potency in that assay.

The structures appear in SMILES notation. Peptide text beside a SMILES is read from it.

This passage reports IC50 results from patent publication US20040029178A1, “Novel g protein-coupled receptor proteins and dnas thereof” (priority 2000, published 2004).

For this experiment, the target named is T1, TGR26 (Rattus norvegicus, UniProt Q56UD9).
T1 construct: expressed in transfected cells; whole cells in A1, membrane fraction in A2 and A3
T1 sequence (Q56UD9 1-329): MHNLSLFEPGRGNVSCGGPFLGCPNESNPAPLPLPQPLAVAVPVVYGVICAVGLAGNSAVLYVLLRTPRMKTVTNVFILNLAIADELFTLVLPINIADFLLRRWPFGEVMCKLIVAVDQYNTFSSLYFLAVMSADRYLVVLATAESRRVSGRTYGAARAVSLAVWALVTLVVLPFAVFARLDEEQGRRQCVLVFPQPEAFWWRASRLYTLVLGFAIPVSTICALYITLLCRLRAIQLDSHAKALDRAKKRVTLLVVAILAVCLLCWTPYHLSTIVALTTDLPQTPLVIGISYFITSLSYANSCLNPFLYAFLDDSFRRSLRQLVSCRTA
Kind of experiment: Receptor binding using [125I-Tyr10]-hGPR8L (1-23) and membrane fraction of TGR26 expressing CHO cells. Conditions: membrane fraction of TGR26 expressing CHO cells, [125I-Tyr10]-hGPR8L (1-23), method of Example 8. The protocol: Using [^125I-Tyr^10]-hGPR8L (1-23) prepared by the method described in Reference Example 15 and a cell membrane fraction prepared from TGR26 expressing cells as described in Example 6, a receptor binding assay was carried out as follows.
Cell membrane fraction prepared from TGR26 expressing cells was diluted to various concentration with assay buffer (25 mM Tris-HCl, 5 mM EDTA, 0.05% CHAPS (3-[(3-Cholamidopropyl) Dimethyl-Ammonio]-1-Propanesulfonate), 0.1% BSA, 0.5 mM PMSF, 1 μg/ml Pepstatin, 20 μg/ml Leupeptin, 4 μg/ml E-64, pH 7.4), and 200 μl each of the diluent was dispensed into polypropilene test tube (Falcon 2053). In order to determine an amount of maximum binding, 2 μl of DMSO and 2 μl of 7 nM [^125I-Tyr^10]-hGPR8L (1-23) were added to the membrane fraction solution. Further, in order to determine a non-specific binding, 2 μl of 100 μM hGPR8L (1-23)/DMSO solution and 2 μl of 7 nM [^125I-Tyr^10]-hGPR8L (1-23) were added to the membrane fraction solution. The reaction was done at 25° C. for 75 minutes, and the reaction mixture was filtered by suction filtration using Whatman glassfilter (GF-F) treated with polyethyleneimine. In addition, the filter was washed twice with 1.5 ml of washing buffer (25 mM Tris-HCl, 5 mM EDTA, 0.05% CHAPS, 0.1% BSA, pH 7.4). After filtration, a radioactivity remaining on the filter was counted using γ-counter, and an amount of specific binding was estimated by subtracting an amount of non-specific binding from an amount of maximum binding.
Where the concentration of membrane fraction was set to 3 μg/ml, an inhibition for the specific binding of [125I-Tyr^10]-hGPR8L (1-23) to the membrane fraction of TGR26 expressing cells by hGPR8L (1-23) and hGPR8L (1-30) was investigated.
A receptor binding activity of human- and porcine-homologue derivatives of GPR8 ligand peptide obtained in the reference examples was measured using a membrane fraction of TGR26 expressing CHO cells and [^125I-Tyr^10]-hGPR8L (1-23) by the method described in Example 8. The receptor binding activity is represented by concentration of 50% inhibition for binding (IC50 value).

`CSCC[C@H](NC(=O)[C@H](CC(C)C)NC(=O)[C@H](CC(C)C)NC(=O)CNC(=O)[C@H](C)NC(=O)[C@H](C)NC(=O)[C@H](CCCNC(=N)N)NC(=O)CNC(=O)[C@@H](NC(=O)[C@@H](NC(=O)[C@H](Cc1c[nH]cn1)NC(=O)[C@H](Cc1ccc(O)cc1)NC(=O)[C@H](CCCNC(=N)N)NC(=O)[C@@H]1CCCN1C(=O)[C@H](CO)NC(=O)[C@H](C)NC(=O)[C@@H](NC(=O)[C@H](Cc1c[nH]cn1)NC(=O)[C@H](CCCCN)NC(=O)[C@H](Cc1ccc(O)cc1)NC(C)=O)C(C)C)[C@@H](C)O)C(C)C)C(=O)NCC(=O)N[C@@H](CC(C)C)C(=O)O` [Ac-hGPR8L (2-23), Ac-Tyr-Lys-His -Val-Ala-Ser-Pro-Arg-Tyr-His-Thr-Val-Gly-Arg-Ala-Ala-Gly-Leu-Leu-Met-Gly-Leu] (Ac-YKHVASPRYHTVGRAAGLLMGL-OH; C-terminus assumed) registered an IC50 of 570 nM.
In the case of `CSCC[C@H](NC(=O)[C@H](CC(C)C)NC(=O)[C@H](CC(C)C)NC(=O)CNC(=O)[C@H](C)NC(=O)[C@H](C)NC(=O)[C@H](CCCNC(=N)N)NC(=O)CNC(=O)[C@@H](NC(=O)[C@@H](NC(=O)[C@H](Cc1c[nH]cn1)NC(=O)[C@H](Cc1ccc(O)cc1)NC(=O)[C@H](CCCNC(=N)N)NC(=O)[C@@H]1CCCN1C(=O)[C@H](CO)NC(=O)[C@H](C)NC(=O)[C@@H](NC(=O)[C@H](Cc1c[nH]cn1)NC(=O)[C@H](CCCCN)NC(=O)[C@H](Cc1ccc(O)cc1)NC(=O)[C@H](Cc1c[nH]c2ccccc12)NC(=O)OCC1c2ccccc2-c2ccccc21)C(C)C)[C@@H](C)O)C(C)C)C(=O)NCC(=O)N[C@@H](CC(C)C)C(=O)O` [Fmoc-hGPR8L (1-23)] it was 0.23 nM; in that of `CSCC[C@H](NC(=O)[C@H](CC(C)C)NC(=O)[C@H](CC(C)C)NC(=O)CNC(=O)[C@H](C)NC(=O)[C@H](C)NC(=O)[C@H](CCCNC(=N)N)NC(=O)CNC(=O)[C@@H](NC(=O)[C@@H](NC(=O)[C@H](Cc1c[nH]cn1)NC(=O)[C@H](Cc1ccc(O)cc1)NC(=O)[C@H](CCCNC(=N)N)NC(=O)[C@@H]1CCCN1C(=O)[C@H](CO)NC(=O)[C@H](C)NC(=O)[C@@H](NC(=O)[C@H](Cc1c[nH]cn1)NC(=O)[C@H](CCCCN)NC(=O)[C@H](Cc1ccc(O)cc1)NC(=O)CCc1c[nH]c2ccccc12)C(C)C)[C@@H](C)O)C(C)C)C(=O)NCC(=O)N[C@@H](CC(C)C)C(=O)O` [IndPr-hGPR8L (2-23)] (HELM PEPTIDE1{[O=C(CCc1c[nH]c2ccccc12)[*:2]].Y.K.H.V.A.S.P.R.Y.H.T.V.G.R.A.A.G.L.L.M.G.L}$$$$V2.0; C-terminus assumed), 0.12 nM; in that of `CSCC[C@H](NC(=O)[C@H](CC(C)C)NC(=O)[C@H](CC(C)C)NC(=O)CNC(=O)[C@H](C)NC(=O)[C@H](C)NC(=O)[C@H](CCCNC(=N)N)NC(=O)CNC(=O)[C@@H](NC(=O)[C@@H](NC(=O)[C@H](Cc1c[nH]cn1)NC(=O)[C@H](Cc1ccc(O)cc1)NC(=O)[C@H](CCCNC(=N)N)NC(=O)[C@@H]1CCCN1C(=O)[C@H](CO)NC(=O)[C@H](C)NC(=O)[C@@H](NC(=O)[C@H](Cc1c[nH]cn1)NC(=O)[C@H](CCCCN)NC(=O)[C@H](Cc1ccc(O)cc1)NC(=O)[C@H](N)Cc1c[nH]c2ccccc12)C(C)C)[C@@H](C)O)C(C)C)C(=O)NCC(=O)N[C@@H](CC(C)C)C(=O)O` [[D-Trp^1]-hGPR8L (1-23), D-Trp-Tyr-Lys-His-Val -Ala-Ser-Pro-Arg-Tyr-His-Thr-Val-Gly-Arg-Ala-Ala-Gly-Leu-Leu-Met-Gly-Leu], 1.3 nM.
In turn, `CC(C)C[C@H](NC(=O)CNC(=O)[C@H](CC[S+](C)[O-])NC(=O)[C@H](CC(C)C)NC(=O)[C@H](CC(C)C)NC(=O)CNC(=O)[C@H](C)NC(=O)[C@H](C)NC(=O)[C@H](CCCNC(=N)N)NC(=O)CNC(=O)[C@@H](NC(=O)[C@@H](NC(=O)[C@H](Cc1c[nH]cn1)NC(=O)[C@H](Cc1ccc(O)cc1)NC(=O)[C@H](CCCNC(=N)N)NC(=O)[C@@H]1CCCN1C(=O)[C@H](CO)NC(=O)[C@H](C)NC(=O)[C@@H](NC(=O)[C@H](Cc1c[nH]cn1)NC(=O)[C@H](CCCCN)NC(=O)[C@H](Cc1ccc(O)cc1)NC(=O)[C@@H](N)Cc1c[nH]c2ccccc12)C(C)C)[C@@H](C)O)C(C)C)C(=O)O` (stereo partly drawn) [[Met(O)]-hGPR8L (1-23), Trp-Tyr-Lys-His-Val-Ala -Ser-Pro-Arg-Tyr-His-Thr-Val-Gly-Arg-Ala-Ala-Gly-Leu-Leu-Met(O)-Gly-Leu] yielded an IC50 of 0.29 nM.
In the case of `CC(C)[C@H](NC(=O)[C@H](Cc1c[nH]cn1)NC(=O)[C@H](CCCCN)NC(=O)[C@H](Cc1ccc(O)cc1)NC(=O)[C@@H](N)Cc1c[nH]c2ccccc12)C(=O)N[C@@H](C)C(=O)N[C@@H](CO)C(=O)N1CCC[C@H]1C(=O)N[C@@H](CCCNC(=N)N)C(=O)N[C@@H](Cc1ccc(O)cc1)C(=O)N[C@@H](Cc1c[nH]cn1)C(=O)N[C@H](C(=O)N[C@H](C(=O)NCC(=O)N[C@@H](CCCNC(=N)N)C(=O)N[C@@H](C)C(=O)N[C@@H](C)C(=O)NCC(=O)O)C(C)C)[C@@H](C)O` [hGPR8L (1-18), Trp-Tyr-Lys-His-Val-Ala-Ser -Pro-Arg-Tyr-His-Thr-Val-Gly-Arg-Ala-Ala-Gly] (H-WYKHVASPRYHTVGRAAG-OH; N-terminus and C-terminus assumed) it was 760 nM.
In the case of `CC(C)C[C@H](NC(=O)CNC(=O)[C@H](C)NC(=O)[C@H](C)NC(=O)[C@H](CCCNC(=N)N)NC(=O)CNC(=O)[C@@H](NC(=O)[C@@H](NC(=O)[C@H](Cc1c[nH]cn1)NC(=O)[C@H](Cc1ccc(O)cc1)NC(=O)[C@H](CCCNC(=N)N)NC(=O)[C@@H]1CCCN1C(=O)[C@H](CO)NC(=O)[C@H](C)NC(=O)[C@@H](NC(=O)[C@H](Cc1c[nH]cn1)NC(=O)[C@H](CCCCN)NC(=O)[C@H](Cc1ccc(O)cc1)NC(=O)[C@@H](N)Cc1c[nH]c2ccccc12)C(C)C)[C@@H](C)O)C(C)C)C(=O)O` [hGPR8L (1-19), Trp-Tyr-Lys-His-Val-Ala-Ser -Pro-Arg-Tyr-His-Thr-Val-Gly-Arg-Ala-Ala-Gly-Leu] (H-WYKHVASPRYHTVGRAAGL-OH; N-terminus and C-terminus assumed) it was 9.9 nM.
In the case of `CC(C)C[C@H](NC(=O)[C@H](CC(C)C)NC(=O)CNC(=O)[C@H](C)NC(=O)[C@H](C)NC(=O)[C@H](CCCNC(=N)N)NC(=O)CNC(=O)[C@@H](NC(=O)[C@@H](NC(=O)[C@H](Cc1c[nH]cn1)NC(=O)[C@H](Cc1ccc(O)cc1)NC(=O)[C@H](CCCNC(=N)N)NC(=O)[C@@H]1CCCN1C(=O)[C@H](CO)NC(=O)[C@H](C)NC(=O)[C@@H](NC(=O)[C@H](Cc1c[nH]cn1)NC(=O)[C@H](CCCCN)NC(=O)[C@H](Cc1ccc(O)cc1)NC(=O)[C@@H](N)Cc1c[nH]c2ccccc12)C(C)C)[C@@H](C)O)C(C)C)C(=O)O` [hGPR8L (1-20), Trp-Tyr-Lys-His-Val-Ala-Ser -Pro-Arg-Tyr-His-Thr-Val-Gly-Arg-Ala-Ala-Gly-Leu-Leu] (H-WYKHVASPRYHTVGRAAGLL-OH; N-terminus and C-terminus assumed) it was 0.17 nM; in that of `CSCC[C@H](NC(=O)[C@H](CC(C)C)NC(=O)[C@H](CC(C)C)NC(=O)CNC(=O)[C@H](C)NC(=O)[C@H](C)NC(=O)[C@H](CCCNC(=N)N)NC(=O)CNC(=O)[C@@H](NC(=O)[C@@H](NC(=O)[C@H](Cc1c[nH]cn1)NC(=O)[C@H](Cc1ccc(O)cc1)NC(=O)[C@H](CCCNC(=N)N)NC(=O)[C@@H]1CCCN1C(=O)[C@H](CO)NC(=O)[C@H](C)NC(=O)[C@@H](NC(=O)[C@H](Cc1c[nH]cn1)NC(=O)[C@H](CCCCN)NC(=O)[C@@H](N)Cc1ccc(O)cc1)C(C)C)[C@@H](C)O)C(C)C)C(=O)NCC(=O)N[C@@H](CC(C)C)C(=O)O` [hGPR8L (2-23), Tyr-Lys-His-Val-Ala-Ser-Pro -Arg-Tyr-His-Thr-Val-Gly-Arg-Ala-Ala-Gly-Leu-Leu-Met-Gly-Leu] (H-YKHVASPRYHTVGRAAGLLMGL-OH; C-terminus assumed), 240 nM.
